Results taken from ChEMBL document CHEMBL4390697, “Ginnalin B induces differentiation markers and modulates the proliferation/differentiation balance via the upregulation of NOTCH1 in human epidermal keratinocytes” (Bioorg Med Chem, 2019).
The source made the active and inactive calls. No cut-off for these calls is given here.

How the values were obtained:
Homo sapiens [1] = species: Homo sapiens; assay: (§1) Induction of keratin-10 expression in human PHK160b cells at 50 uM incubated for 48 hrs by quantitative RT-PCR analysis relative to untreated control; format: functional
[2] = as §1; format: functional
[3] = Inhibition of keratin-10 expression in human PHK160b cells at 50 uM incubated for 48 hrs by quantitative RT-PCR analysis relative to untreated control; format: functional
[4] = Cell cycle arrest in human PHK160b cells assessed as accumulation at G2/M phase at 50 uM incubated for 48 hrs by propidium iodide staining-based flow cytometry; format: functional
[5] = Cytotoxicity against human PHK160b cells assessed as reduction in cell viability incubated for 48 hrs by LDH release assay; format: cell-based
[6] = Induction of apoptosis in human PHK160b cells assessed as induction of multiple fragmented segregated bodies at 100 uM incubated for 48 hrs Hoechst 33,342 staining based fluorescent microscopy; format: cell-based
[7] = Cell cycle arrest in human PHK160b cells assessed as accumulation at G0/G1 phase at 50 uM incubated for 48 hrs by propidium iodide staining-based flow cytometry; format: functional
[8] = Cell cycle arrest in human PHK160b cells assessed as increase in expression of NOTCH1 at 100 uM incubated for 72 hrs by RT-PCR method relative to control; format: functional
Homo sapiens [9] = species: Homo sapiens; assay: Cell cycle arrest in human PHK160b cells assessed as increase in expression of NOTCH 1 at 50 to 100 uM incubated for 72 hrs by western blot method; format: functional, cell-based
[10] = Cell cycle arrest in human PHK160b cells assessed as increase in expression of p21 at 0 to 100 uM incubated for 72 hrs by RT-PCR method; format: functional
Homo sapiens [11] = species: Homo sapiens; assay: Cell cycle arrest in human PHK160b cells assessed as decrease in expression of cyclin E incubated for 72 hrs by western blot method; format: functional, cell-based
Homo sapiens [12] = species: Homo sapiens; assay: Cell cycle arrest in human PHK160b cells assessed as decrease in expression of cyclin D1 incubated for 72 hrs by western blot method; format: functional, cell-based
[13] = Cytotoxicity against human PHK160b cells assessed as reduction in cell viability at 100 uM incubated for 24 hrs by MTT assay; format: cell-based
[14] = Cell cycle arrest in human PHK160b cells assessed as accumulation at G2/M phase at 100 uM incubated for 48 hrs by propidium iodide staining-based flow cytometry; format: functional
Homo sapiens [15] = species: Homo sapiens; assay: Induction of filaggrin expression in human PHK160b cells incubated for 48 hrs by quantitative RT-PCR analysis relative to untreated control; format: functional, cell-based
[16] = Induction of keratin-10 expression in human PHK160b cells at 100 uM incubated for 48 hrs by quantitative RT-PCR analysis relative to untreated control; format: functional
[17] = Induction of filaggrin expression in human PHK160b cells at 100 uM incubated for 48 hrs by quantitative RT-PCR analysis relative to untreated control; format: functional
Homo sapiens [18] = species: Homo sapiens; assay: Cell cycle arrest in human PHK160b cells assessed as increase in expression of p21 incubated for 72 hrs by western blot method; format: functional, cell-based
[19] = Cell cycle arrest in human PHK160b cells assessed as accumulation at G0/G1 phase at 100 uM incubated for 48 hrs by propidium iodide staining-based flow cytometry; format: functional
[20] = Cytotoxicity against human PHK160b cells assessed as reduction in cell viability at 10 to 1000 uM incubated for 48 hrs by LDH release assay; format: cell-based
Homo sapiens [21] = species: Homo sapiens; assay: Induction of keratin-10 expression in human PHK160b cells incubated for 48 hrs by quantitative RT-PCR analysis relative to untreated control; format: functional, cell-based
Zone of skin [22] = assay: Induction of keratinocyte differentiation in human EPI-212 EpiDerm skin model assessed as increase in keratin-10 expression at 100 uM incubated for 7 days by DAB based immunohistochemical staining analysis (Rvb= 35.8%); format: functional
[23] = Induction of keratin-1 expression in human PHK160b cells at 100 uM incubated for 48 hrs by quantitative RT-PCR analysis relative to untreated control; format: functional
Homo sapiens [24] = species: Homo sapiens; assay: Induction of keratin-1 expression in human PHK160b cells incubated for 48 hrs by quantitative RT-PCR analysis relative to untreated control; format: functional, cell-based
[25] = Cytotoxicity against human PHK160b cells assessed as reduction in cell growth at 100 uM incubated for 24 to 96 hrs by MTT assay; format: cell-based
Zone of skin [26] = assay: Induction of keratinocyte differentiation in human EPI-212 EpiDerm skin model assessed as increase in filaggrin expression at 100 uM incubated for 7 days by DAB based immunohistochemical staining analysis (Rvb= 20%); format: functional
[27] = Cytotoxicity against human PHK160b cells assessed as reduction in cell growth at 100 uM incubated up to 96 hrs by MTT assay; format: cell-based

COc1cc(C(=O)OC[C@H]2OC[C@H](O)[C@@H](O)[C@@H]2O)cc(OC)c1OC
Activity (Homo sapiens [1]): inactive

O=C(OC[C@H]1OC[C@H](O)[C@@H](O)[C@@H]1O)c1ccccc1
Activity (Homo sapiens [1]): inactive

O=C(OC[C@H]1OC[C@H](O)[C@@H](O)[C@@H]1OC(=O)c1cc(O)c(O)c(O)c1)c1cc(O)c(O)c(O)c1
fold change (FC) [2]: 2.18

O=C(OC[C@H]1OC[C@H](OC(=O)c2cc(O)c(O)c(O)c2)[C@@H](OC(=O)c2cc(O)c(O)c(O)c2)[C@@H]1OC(=O)c1cc(O)c(O)c(O)c1)c1cc(O)c(O)c(O)c1
fold change (FC) [3]: 0.64

O=C(O[C@H]1CO[C@H](CO)[C@@H](O)[C@@H]1O)c1cc(O)c(O)c(O)c1
Activity (Homo sapiens [1]): Active

O=C(O[C@H]1[C@H](O)[C@@H](O)CO[C@@H]1CO)c1cc(O)c(O)c(O)c1
Activity (Homo sapiens [1]): Active

O=C(O[C@H]1[C@H](O)[C@@H](OC(=O)c2cc(O)c(O)c(O)c2)CO[C@@H]1CO)c1cc(O)c(O)c(O)c1 [MAPLEXIN D]
fold change (FC) [2]: 2.2

O=C(O[C@H]1[C@H](O)[C@@H](CO)OC[C@@H]1O)c1cc(O)c(O)c(O)c1
Activity (Homo sapiens [1]): Active

COc1cc2c(c(OC)c1OC)-c1ccc(OC)c(=O)cc1[C@@H](NC(C)=O)CC2 [COLCHICINE]
Activity [4]: 74.6%
Activity [5]: Dose-dependent effect
Activity [6]: Toxic
Activity [7]: 18%

O=C(OC[C@H]1OC[C@H](O)[C@@H](O)[C@@H]1O)c1cc(O)c(O)c(O)c1 [GINNALIN B]
fold change (FC) [8]: 1.9
Activity (Homo sapiens [9]): Active
fold change (FC) [10]: 1.4
Activity (Homo sapiens [11]): Dose-dependent effect
fold change (FC) [2]: 1.9
Activity (Homo sapiens [12]): Dose-dependent effect
Activity [13]: Non-Toxic
Activity [14]: 20%
Activity (Homo sapiens [15]): Dose-dependent effect
Activity [6]: Non-Toxic
fold change (FC) [16]: 1.7
fold change (FC) [17]: 5.2
Activity (Homo sapiens [18]): Dose-dependent effect
Activity [19]: 66%
Activity [20]: Non-Toxic
Activity (Homo sapiens [21]): Dose-dependent effect
Activity (Zone of skin [22]): 42.4%
fold change (FC) [23]: 2.9
Activity (Homo sapiens [24]): Dose-dependent effect
Activity [25]: Toxic
Activity (Zone of skin [26]): 56.6%

OC[C@H]1OC[C@H](O)[C@@H](O)[C@@H]1O [1,5-Anhydrosorbitol]
Activity (Homo sapiens [1]): inactive
Activity [27]: Non-Toxic
